Source: US10251395B2, “Substituted furano-/thienocycloalkylamino-2-pyrimidine derivatives and use thereof for controlling undesired plant growth” (Bayer CropScience Aktiengesellschaft, priority 2015, dated 2019)

Assays:
logP (HCOOH) = format: physicochemical; conditions: for chromatographic logP: HCOOH (formic acid)
Source text: Table 2 (physicochemical characterization of selected synthesis examples)

Alopecurus myosuroides = assay: Pre-emergence herbicidal effect; format: in vivo; conditions: scored visually after 3 weeks
Summary of the method: (§1)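 Pre-emergence soil-surface application of compound as WP or EC in water (600 to 800 L/ha, 0.2% wetting agent) to freshly sown, soil-covered seeds in sandy loam. After 3 weeks under greenhouse conditions, percent activity rated by eye versus untreated plants, from 0% (no effect) to 100% (death).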

Amaranthus retroflexus = assay: Pre-emergence herbicidal effect; format: in vivo; conditions: scored visually after 3 weeks
Summary of the method: as §1

Echinochloa crus-galli = assay: Pre-emergence herbicidal effect; format: in vivo; conditions: Dosage 320 g/ha, scored visually after 3 weeks
Summary of the method: as §1

Matricaria inodora = assay: Pre-emergence herbicidal effect; format: in vivo; conditions: scored visually after 3 weeks
Summary of the method: as §1

Polygonum convolvulus = assay: Pre-emergence herbicidal effect; format: in vivo; conditions: Dosage 320 g/ha, scored visually after 3 weeks
Summary of the method: as §1

Setaria viridis = assay: Pre-emergence herbicidal effect; format: in vivo; conditions: Dosage 320 g/ha, scored visually after 3 weeks
Summary of the method: as §1

Stellaria media = assay: Pre-emergence herbicidal effect; format: in vivo; conditions: Dosage 320 g/ha, scored visually after 3 weeks
Summary of the method: as §1

Veronica persica [1] = assay: Pre-emergence herbicidal effect; format: in vivo; conditions: scored visually after 3 weeks
Summary of the method: as §1

Viola tricolor [2] = assay: Pre-emergence herbicidal effect; format: in vivo; conditions: scored visually after 3 weeks
Summary of the method: as §1

Ipomoea purpurea = assay: Post-emergence herbicidal effect; format: in vivo; conditions: 320 g/ha, assessed visually after about 3 weeks vs untreated controls
Summary of the method: (§2)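 Seedlings at the one-leaf stage, about 2 to 3 weeks old, are sprayed on their foliage with compound suspended or emulsified in water containing 0.2% wetting agent. After roughly 3 weeks in the greenhouse, injury is estimated visually on a 0 to 100% scale.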

Veronica persica [3] = assay: Post-emergence herbicidal effect; format: in vivo; conditions: assessed visually after about 3 weeks vs untreated controls
Summary of the method: as §2

Viola tricolor [4] = assay: Post-emergence herbicidal effect; format: in vivo; conditions: assessed visually after about 3 weeks vs untreated controls
Summary of the method: as §2

Cc1nc(NC2CCCc3c(C)sc(C)c32)nc(N)c1C#N (racemic) [compound 64]
logP (HCOOH) (logP (HCOOH)): solid, logP (HCOOH): 2.71; 1H NMR (CDCl3, 400 MHZ, δ in ppm): 1.75 (m, 3H, 3H

Cc1cc2c(s1)CCCC2Nc1ncc(C(=O)C(F)(F)F)c(N)n1 (racemic) [compound 72]
ALOMY pre-emergence efficacy (herbicidal activity) (Alopecurus myosuroides; Dosage 80 g/ha): 80%
ALOMY pre-emergence efficacy (herbicidal activity) (Alopecurus myosuroides; Dosage 320 g/ha): 90%
AMARE pre-emergence efficacy (herbicidal activity) (Amaranthus retroflexus; Dosage 80 g/ha): 80%
AMARE pre-emergence efficacy (herbicidal activity) (Amaranthus retroflexus; Dosage 320 g/ha): 100%
ECHCG pre-emergence efficacy (herbicidal activity) (Echinochloa crus-galli): 80%
MATIN pre-emergence efficacy (herbicidal activity) (Matricaria inodora; Dosage 80 g/ha): 100%
MATIN pre-emergence efficacy (herbicidal activity) (Matricaria inodora; Dosage 320 g/ha): 100%
POLCO pre-emergence efficacy (herbicidal activity) (Polygonum convolvulus): 100%
SETVI pre-emergence efficacy (herbicidal activity) (Setaria viridis): 100%
STEME pre-emergence efficacy (herbicidal activity) (Stellaria media): 100%
VERPE pre-emergence efficacy (herbicidal activity) (Veronica persica [1]; Dosage 80 g/ha): 100%
VERPE pre-emergence efficacy (herbicidal activity) (Veronica persica [1]; Dosage 320 g/ha): 100%
VIOTR pre-emergence efficacy (herbicidal activity) (Viola tricolor [2]; Dosage 80 g/ha): 100%
VIOTR pre-emergence efficacy (herbicidal activity) (Viola tricolor [2]; Dosage 320 g/ha): 100%
post-emergence efficacy PHBPU (Ipomoea purpurea): 80%
post-emergence efficacy VERPE (Veronica persica [3]; 80 g/ha): 80%
post-emergence efficacy VERPE (Veronica persica [3]; 320 g/ha): 80%
post-emergence efficacy VIOTR (Viola tricolor [4]; 80 g/ha): 80%
post-emergence efficacy VIOTR (Viola tricolor [4]; 320 g/ha): 100%
logP (HCOOH) (logP (HCOOH)): oily; logP (HCOOH): 3.90; 1H NMR (CDCl3, 400 MHZ, δ in ppm): 1.85 (m, 3H, 3H of

Cc1cc2c(s1)CCCC2Nc1ncc(S(=O)(=O)C(C)(C)C)c(N)n1 (racemic) [compound 76]
logP (HCOOH) (logP (HCOOH)): solid; logP (HCOOH): 3.01; 1H NMR (CDCl3, 400 MHZ, δ in ppm): ): 1.40 (s, 9H,

Cc1cc2c(s1)CCC2Nc1ncc(S(=O)(=O)C(C)(C)C)c(N)n1 (racemic) [compound 77]
logP (HCOOH) (logP (HCOOH)): solid; logP (HCOOH): 2.67; 1H NMR (CDCl3, 400 MHZ, δ in ppm): 1.40 (s, 9H, 3*3H

COc1nc(NC2CCCc3sc(C)cc32)ncc1F (racemic) [compound 224]
logP (HCOOH) (logP (HCOOH)): solid; logP (HCOOH): 3.12; 1H NMR (CDCl3, 400 MHZ, δ in ppm): 1.90 (m, 3H, 3H

Cc1cc2c(s1)CCCC2Nc1ncc(F)c(N)n1 (stereo not shown) [compound 12, 5-Fluoro-N2-(2-methyl-4,5,6,7-tetrahydro-1-benzothiophen-4-yl)pyrimidine-2,4-diamine]
ALOMY pre-emergence efficacy (herbicidal activity) (Alopecurus myosuroides; Dosage 320 g/ha): 90%
AMARE pre-emergence efficacy (herbicidal activity) (Amaranthus retroflexus; Dosage 320 g/ha): 90%
MATIN pre-emergence efficacy (herbicidal activity) (Matricaria inodora; Dosage 320 g/ha): 90%
POLCO pre-emergence efficacy (herbicidal activity) (Polygonum convolvulus): 80%
SETVI pre-emergence efficacy (herbicidal activity) (Setaria viridis): 90%
STEME pre-emergence efficacy (herbicidal activity) (Stellaria media): 100%
VERPE pre-emergence efficacy (herbicidal activity) (Veronica persica [1]; Dosage 320 g/ha): 100%
VIOTR pre-emergence efficacy (herbicidal activity) (Viola tricolor [2]; Dosage 320 g/ha): 100%
chromatographic logP (logP (HCOOH)): 1.07

CCCS(=O)(=O)c1cnc(NC2CCCc3sccc32)nc1N (stereo not shown) [compound 37, 5-Propylsulfonyl-N2-(4,5,6,7-tetrahydrobenzothiophen-4-yl)pyrimidine-2,4-diamine]
chromatographic logP (logP (HCOOH)): 2.33

Cc1cc2c(o1)CC(C)(C)CC2Nc1ncc([N+](=O)[O-])c(N)n1 (stereo not shown) [compound 40, 5-Nitro-N2-(2,6,6-trimethyl-4,5,6,7-tetrahydro-1-benzofuran-4-yl)pyrimidine-2,4-diamine]
chromatographic logP (logP (HCOOH)): 3.2

CC(=O)c1cnc(N[C@@H]2CCCc3sccc32)nc1C [compound 71]
logP (HCOOH) (logP (HCOOH)): solid; logP (HCOOH): 2.98; 1H NMR (CDCl3, 400 MHZ, δ in ppm): ): 1.85 (m, 3H,

Cc1nc(N[C@@H]2CCCc3sccc32)ncc1F [compound 223]
logP (HCOOH) (logP (HCOOH)): solid; logP (HCOOH): 2.57; 1H NMR (CDCl3, 400 MHZ, δ in ppm): 1.90 (m, 3H, 3H
